A word on the melting point: it is the temperature of the solid-liquid transition.

This note sets out measurements from a melting point compilation (Tetko et al.; mined from patent text by program, amines drawn as free bases though some values may be those of a salt).

Turning to `CCCCCC(C)C(C)c1cc(O)c2c(c1)OC(C)(C)C1=C2CN(CC(=O)Nc2ccc(Cl)cc2)CC1` (centres undefined), the melting point was 159 to 160 °C.
In the case of `O=C(O)c1cc(Cl)ccc1COc1ccccc1` it was 149 to 155 °C.
Then `Cc1c(Nc2c(C#N)cnc3sc(-c4cccc(CN(C)C)c4)cc23)ccc2[nH]ccc12`, with 227 to 229 °C.
Then `CCOC(=O)C1=CC(=O)CC(c2ccc(Cl)cc2)N1` (centres undefined), with 93 to 94 °C; and `N=C(NCCCc1c[nH]cn1)N[N+](=O)[O-]`, with 156 to 158 °C; and `CCOC(=O)c1nc2oc(C)c(C)c2c(=O)[nH]1`, with 180 to 182 °C.
In turn, `CCSc1c(C=NOC)c(=O)n(C)c(=O)n1C` showed a melting point of 74 to 75 °C.
Compound `Nc1ccc(CC(=O)O)cc1Br` registered a melting point of 139 to 140 °C.
In the case of `COc1ccc(OCC(=O)O)c(OC)c1OC` it was 102 to 104 °C; in that of `OCC(O)c1cccc(OCc2ccc3ccccc3c2)c1` (centres undefined), 121 to 122 °C; in that of `COC(=O)CCCc1cc2cc(Cl)ccc2n1S(=O)(=O)c1ccc2c(c1)CN(C(C)=O)CC2`, 50 to 52 °C.
As for `COc1cc2c(cc1OC)[C@@H](c1ccc([N+](=O)[O-])cc1)NN(C1=NC(=O)CS1)[C@@H](C)C2`, the melting point was in the range of 238 to 239 °C.
Regarding `CCn1c(Cl)c(C=O)c(=O)n(CC)c1=O`, the melting point fell in the range of 88 to 89 °C.
The compound `CN1CC(C(=O)NCc2cccnc2)CC2c3cccc4c3c(cn4C)CC21` (centres undefined) yielded a melting point of 185 to 187 °C.
Then `COc1cc(CCCC2OC(=O)NC2=O)ccc1OCc1nc(-c2ccccc2)sc1C` (centres undefined), with 128 to 129 °C; and `Cc1cccc(NC(=S)SCC(=O)C(C)(C)C)n1`, with 80 °C.
As for `COC(=O)c1cncc(N(C)C(=O)C(C)CSC(C)=O)c1` (centres undefined), the melting point was in the range of 123 to 125 °C.
Then `CCCCCCCCCCCCCCCC(=O)OC1CN(C)C2(C1)C1CC3CC(C1)CC2C3` (centres undefined), with 50 to 53 °C.
Turning to `OCc1csc(N2CCCCC2)n1`, the melting point is 89 to 90 °C.
With `CCNC1=NN(c2ccc(Cl)cc2)C(C)C1` (centres undefined), the melting point was 57 to 58 °C.
In the case of `C[C@H](NC(=O)COCCNC(=O)c1ccc(Cl)cc1)C(=O)N[C@H](CCC(=O)OCc1ccccc1)C(N)=O` it was 141 to 143 °C.
In turn, `FC(F)(F)c1cc(N(Cc2ccsc2)Cc2ccccn2)cc(C(F)(F)F)c1Br` registered a melting point of 58 to 59 °C.
Then `Cc1c(NC(=O)CC(C)(C)C)c(C)c2c(c1-c1ccco1)OC[C@@H]2c1ccc(C(C)C)cc1`, with 214 to 217 °C.
In the case of `COC(=O)C1=C(C)NC(C)=C(C(=O)OC)C1c1ccccc1CC(OC)OC` it was 113 to 114 °C.
The compound `CC(=O)c1cccc2c1C1(COc3cc4c(cc31)OCCO4)C(=O)N2C` (centres undefined) registered a melting point of 234 to 235 °C.
Then `COCCOc1nn2c(-c3ccc(OC)cc3)nnc2c2ccccc12`, with 174 to 176 °C; and `CC(C)CSc1nc2c(cc1C#N)C(=O)CC(C)(C)C2`, with 75 to 76 °C.
Then `O=C(C=Cc1ccc(O)c(O)c1O)OCCc1ccccc1`, with 144 °C; and `CC(=O)Oc1c(Cc2ccccc2)ccc2ccccc12`, with 67 to 69 °C; and `FC(F)(F)Oc1ccc(-n2cc(CBr)cn2)cc1`, with 50 to 51 °C.
In the case of `COc1ccc(-c2ccc(C(=O)O)c(C(=O)O)c2)c2c1OCCO2` it was 192 to 196 °C.
On to `CC(C(=O)N(c1ccccc1)c1ccccc1)N1C(=O)c2ccccc2C1=O` (racemic), for which the melting point stood at 89 °C.
As for `CC(=O)C1CCC2C3CCC4=CC(=O)C=CC4(C)C3CCC12C` (centres undefined), the melting point lay within 183 to 185 °C.
In the case of `CN(C(=O)Nc1ccc(Cl)c(Cl)c1)S(C)(=O)=O` it was 140 °C.
Then `Cc1ccccc1NS(=O)(=O)c1ccc(N2CCNC2=O)cc1`, with 209 to 210 °C; and `C#CCSc1nc(Cl)cc(NCc2ccc(Cl)cc2)n1`, with 85 to 88 °C.
`O=C(CBr)c1ccc(O)cc1`: the melting point fell in the range of 115 to 118 °C.
Then `Cc1c(CCC2CC(OC3CCCCO3)CC(=O)O2)c2c(c(C)c1OC(=O)c1ccccc1)CC(C)(C)O2` (centres undefined), with 139 to 140 °C; and `CCc1ccc2c(c1)c1cc(OC)cc3c(=O)c(Cc4cccnc4)cn2c31`, with 109 to 110 °C.
In the case of `CCOC(=O)c1c(CN(CCC(C)C)CCC(C)C)nc2cc(OC)c(OC)cc2c1-c1ccc(OC)c(OC)c1` it was 114 to 115 °C.
Then `CCCC=Cc1c(CC)nc(CC)c(CO)c1-c1ccccc1`, with 74 to 76 °C; and `CCOC(=O)c1cn(C)c2cnc3cc(N4CCCC(C)(C)C4)c(F)cc3c2c1=O`, with 198 to 200 °C.
As for `CSc1ccc(C=CC(=O)C=Cc2ccc(SC)cc2)cc1`, the melting point was 143 to 145 °C.
Then `CCOC(=O)NN=Cc1nc(Cc2ccccc2)[nH]c1C`, with 190 to 192 °C.
Compound `CCCCCC(O)C=CC1C(O)CC(=O)C1CCCCCCC(=O)OCCSS(C)(=O)=O` (centres undefined) displayed a melting point of 56 to 58 °C.
In the case of `CC(C)Cc1[nH]c(=O)[nH]c1-c1cc(C(C)(C)C)c(O)c(C(C)(C)C)c1` it was 286 to 289 °C; in that of `O=C1NCC(c2cccs2)SCC1N1C(=O)c2ccccc2C1=O` (centres undefined), 183 to 184 °C; in that of `Cc1cc(-n2ccnc2)c2cccc(OCc3c(Cl)ccc(S(=O)(=O)N4CCC[C@H]4C(=O)NCCCNC(=O)c4ccc(C#N)cc4)c3Cl)c2n1`, 118 °C.
The compound `CC1=NC(NC(=O)OCc2ccccc2)C(=O)N(CC(=O)C(C)(C)C)c2ccccc21` (centres undefined) showed a melting point of 68 °C.
The compound `Oc1cc(-c2c3ccccc3c(Br)c3sc4ccccc4c23)ccc1Br` displayed a melting point of 111 to 112 °C.
In the case of `O=[N+]([O-])c1cnn(-c2c(Cl)cc(C(F)(F)F)cc2Cl)c1Cl` it was 80 to 84 °C; in that of `CC(=O)Nc1c(-c2cc(Cl)ccc2O)c2cc(C(F)(F)F)ccc2[nH]c1=O`, 222 to 224 °C; in that of `O=C(O)COc1ccnc2ccccc12`, 274 to 276 °C.
With `Cn1cncc1C(O)(c1ccc2c(c1)c(-c1cccc(Cl)c1)cc(=O)n2C)c1nccs1` (centres undefined), the melting point worked out at 246 °C.
In the case of `CC(C)CCCC(C)Cc1cncn1Cc1ccccc1` (centres undefined) it was 61 to 62 °C.
`N#CCCNC(=O)c1cccc(-c2cccc3nn(Cc4ccc(F)c(F)c4)cc23)c1` came in with a melting point of 191 to 192 °C.
As to `Nc1ccc(-c2scc3c2OCCO3)cc1`, the melting point fell in the range of 98.5 to 99 °C.
Then `CCCCCC(=O)Nc1ccnc(-c2ccncc2)n1`, with 119 to 120 °C.
For the compound `CC12CCC(C(=Cc3ccc(CC(SSCC(=O)O)C(=O)O)cc3)C1=O)C2(C)C` (centres undefined), the melting point was determined as 116 °C.
In the case of `C[C@H](c1ccccc1)n1c(=O)c2c(N3CCNCC3)cc(Cl)cc2n(Cc2ccccc2)c1=O` it was 91 to 96 °C.
In the case of `CNc1c(F)cc2c(=O)c(C(=O)O)cn(-c3cc(N)c(F)cc3F)c2c1OC` it was 225 to 227 °C.
In the case of `O=Cc1ncc2n1-c1ccc(Cl)cc1C(c1ccccc1F)=NC2` it was 182 to 183 °C; in that of `COC1=CC(=O)OC1C(O)c1ccccc1C(F)(F)F` (centres undefined), 126 to 128 °C; in that of `O=Cc1cc(-c2ccc(F)cc2Cl)ccc1OC(F)(F)F`, 64 °C.
